Where two headings read alike, the source gives them in different places.
Tests used:
[1] = system: symmetric dimethylation of arginine (SDMA) of PRMT5 substrates in MCF-7 cells; assay: PRMT5 Cell Target Engagement (TE) Assay; format: cell-based; conditions: 3 days treatment, SDMA high content imaging
Procedure, shortened: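 Readout is single-cell nuclear symmetric-dimethylarginine immunofluorescence (Alexa488), normalized to DMSO-treated cells. Compounds were applied to MCF-7 cells for 3 days at 37 °C, top concentration 10000 nM in 1:3 steps over ten points; curves fitted with 4-parameter robust fit.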

[2] = molecular target: T1, Full-length (FL)-PRMT5-MEP50 enzyme complex (Homo sapiens, UniProt O14744); assay: PRMT5-MEP50 Enzyme Methylation Assay (Version B); format: biochemical
T1 construct: Full-length (FL)-PRMT5-MEP50 enzyme complex (recombinant proteins from baculovirus-transfected Sf21 cells: FL-PRMT5; MW=73837 kDa and FL-MEP50; MW=38614); made in house; host or cells: baculovirus-transfected Sf21 cells
T1 sequence (O14744 whole entry): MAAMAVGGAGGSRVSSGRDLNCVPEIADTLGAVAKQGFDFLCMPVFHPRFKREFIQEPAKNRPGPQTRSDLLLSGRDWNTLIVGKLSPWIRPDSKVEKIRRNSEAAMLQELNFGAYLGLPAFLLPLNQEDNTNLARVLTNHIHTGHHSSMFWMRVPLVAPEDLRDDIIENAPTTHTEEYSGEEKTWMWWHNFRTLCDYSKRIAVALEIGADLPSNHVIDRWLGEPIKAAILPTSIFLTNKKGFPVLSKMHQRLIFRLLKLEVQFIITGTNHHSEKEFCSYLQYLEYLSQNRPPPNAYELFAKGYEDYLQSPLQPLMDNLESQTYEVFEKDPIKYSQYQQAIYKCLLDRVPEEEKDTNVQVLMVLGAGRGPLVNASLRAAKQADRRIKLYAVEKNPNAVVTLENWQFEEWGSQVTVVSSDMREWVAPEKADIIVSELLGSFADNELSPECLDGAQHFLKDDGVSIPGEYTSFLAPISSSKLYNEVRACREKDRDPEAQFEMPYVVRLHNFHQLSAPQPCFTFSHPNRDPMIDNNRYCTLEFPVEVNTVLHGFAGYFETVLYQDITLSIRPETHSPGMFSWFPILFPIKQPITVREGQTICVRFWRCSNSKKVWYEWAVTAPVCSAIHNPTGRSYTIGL
T1 sequence (Q9BQA1 whole entry partner): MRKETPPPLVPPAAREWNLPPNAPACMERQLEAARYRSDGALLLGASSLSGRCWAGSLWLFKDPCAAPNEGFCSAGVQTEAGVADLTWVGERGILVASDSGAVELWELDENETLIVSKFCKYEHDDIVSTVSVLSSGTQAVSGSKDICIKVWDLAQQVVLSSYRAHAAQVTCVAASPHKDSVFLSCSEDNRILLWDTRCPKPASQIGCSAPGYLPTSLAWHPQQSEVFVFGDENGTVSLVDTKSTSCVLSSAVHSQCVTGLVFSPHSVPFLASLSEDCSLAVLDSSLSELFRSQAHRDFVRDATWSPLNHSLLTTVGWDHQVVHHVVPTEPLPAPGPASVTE
Description: PRMT5-MEP50 Enzyme Methylation Assay (Version B)
PRMT5/MEP50 biochemical assay is a direct measurement of the methylation activity of the enzyme complex on a short peptide substrate derived from the N-terminus of H4 histone. Methylation experiment was performed with recombinant protein. The assessment of inhibitory effect (IC50) of small molecules was measured by the effectiveness of the compounds to inhibit this reaction.
In this assay, the potency (IC50) of each compound was determined from a twenty-point (1:2 serial dilution; top compound concentration of 100000 nM) titration curve using the following outlined procedure. To each well of a white ProxiPlus 384 well-plate, 100 nL of compound (1% DMSO in final assay volume of 10 μL) was dispensed, followed by the addition of 8 μL of 1× assay buffer (50 mM Bicine pH 8.0, 1 mM DTT, 0.004% Tween20, 0.01% BSA) containing 0.5 nM of Full-length (FL)-PRMT5-MEP50 enzyme complex (recombinant proteins from baculovirus-transfected Sf21 cells: FL-PRMT5; MW=[…] and FL-MEP50; MW=38614). Plates were sealed and placed in a 37° C. humidified chamber for 30 minutes pre-incubation with compounds. Subsequently, each reaction was initiated by the addition of 2 μL 1× assay buffer containing 75 nM biotinylated H4R3 (Me1) peptide, and 15 μM S-(5′-Adenosyl)-L-Methionine Chloride (SAM). The final reaction in each well of 10 μL consists of 0.5 nM PRMT5-MEP50, 75 nM biotinylated-peptide, and 15 μM SAM. Methylation reactions were allowed to proceed for 150 minutes in a sealed plate at 37° C. Reactions were immediately quenched by the addition of 1 μL of 10% formic acid. Plates were then frozen and shipped to SAMDI™ Tech Inc. to determine the percent conversion from […]. EC50 values were determined by non-linear regression according to models for either sigmoidal (4 parameters) or biphasic (7 parameters) dose-response curves.

[3] = second value of 7 parameter biphasic fit, read-out: Enzyme Methylation Assay Version B (EC50 2)
[4] = single EC50 = 4 parameter single site sigmoidal fit, EC50 1 = first value of 7 parameter biphasic fit, read-out: Enzyme Methylation Assay Version B (EC50 or EC50 1)

EC50 ([1]; Homo sapiens, MCF7, 72 h)	Structure (SMILES)	EC50 [2, 3]	EC50 [2, 4]	EC50 [1]
55.9 nM	CC(=O)N1CCC(Nc2cc(C(=O)N3CC[C@]4(Cc5ccccc5CN4)[C@H](O)C3)c(Cl)cn2)CC1 [Example 4, 11-(4-((5-chloro-4-((3R,3’R)-3′-hydroxy-1,4-dihydro-2H-spiro[isoquinoline-3,4′-piperidine]-1′-carbonyl)pyridin-2-yl)amino)piperidin-1-yl)ethan-1-one]	1530 nM	2.63 nM	
38.6 nM	CC(=O)N1CCC(Nc2cc(C(=O)N3CC[C@]4(Cc5ccccc5CN4)[C@H](O)C3)c(F)cn2)CC1 [Example 5, 1-(4-((5-fluoro-4-((3R,3’R)-3′-hydroxy-1,4-dihydro-2H-spiro[isoquinoline-3,4′-piperidine]-1′-carbonyl)pyridin-2-yl)amino)piperidin-1-yl)ethan-1-one]	1110 nM	5.18 nM	
≥ 10000 nM	O=C(c1ccc(C(F)(F)F)nc1Cl)N1CCC2(CC1)Cc1ccccc1CN2 [Example 116, [2-chloro-6-(trifluoromethyl)pyridin-3-yl](1,4-dihydro-1′H,2H-spiro[isoquinoline-3,4′-piperidin]-1′-yl)methanone]	≥ 100000 nM	807 nM	
≥ 10000 nM	CCOc1nc(C(F)(F)F)ccc1C(=O)N1CCC2(CC1)Cc1ccccc1CN2 [Example 115, (1,4-dihydro-1′H,2H-spiro[isoquinoline-3,4′-piperidin]-1′-yl)[2-ethoxy-6-(trifluoromethyl)pyridin-3-yl]methanone]	55000 nM	86.3 nM	
≥ 10000 nM	Cn1ncnc1-c1ccc(C(=O)N2CCC3(CC2)Cc2ccccc2CN3)cc1 [Example 117, (1,4-dihydro-1′H,2H-spiro[isoquinoline-3,4′-piperidin]-1′-yl)[4-(1-methyl-1H-1,2,4-triazol-5-yl)phenyl]methanone]	≥ 100000 nM	690 nM	
7550 nM	CCOc1nc(Cl)ccc1C(=O)N1CCC2(CC1)Cc1ccccc1CN2 [Example 114, (6-chloro-2-ethoxypyridin-3-yl)(1,4-dihydro-1′H,2H-spiro[isoquinoline-3,4′-piperidin]-1′-yl)methanone]	15000 nM	15.1 nM	

Continued, molecule first:

Structure (SMILES)	EC50 ([1]; Homo sapiens, MCF7, 72 h)	EC50 [2, 3]	EC50 [2, 4]	EC50 [1]
O=C(c1ccc(C(=O)N2C3CCC2COC3)cc1OC1CC1)N1CCC2(CC1)Cc1ccccc1CN2 [Example 176, (4-(3-oxa-8-azabicyclo[3.2.1]octane-8-carbonyl)-2-cyclopropoxyphenyl)(1,4-dihydro-2H-spiro[isoquinoline-3,4′-piperidin]-1′-yl)methanone]	253 nM	2860 nM	11 nM	
O=C(c1ccc(C(=O)N2C3CCC2COC3)cc1)N1CCC2(Cc3ccccc3CN2)C(O)C1 (single isomer, unassigned) [Example 151, (3′-hydroxy-1,4-dihydro-1′H,2H-spiro[isoquinoline-3,4′-piperidin]-1′-yl)[4-(3-oxa-8-azabicyclo[3.2.1]oct-8-ylcarbonyl)phenyl]methanone]			882 nM	4180 nM
O=C(c1ccc(C(=O)N2C3CCC2COC3)cc1)N1CCC2(Cc3ccccc3CN2)C(O)C1 (single isomer, unassigned) [Example 150, (3′-hydroxy-1,4-dihydro-1′H,2H-spiro[isoquinoline-3,4′-piperidin]-1′-yl)[4-(3-oxa-8-azabicyclo[3.2.1]oct-8-ylcarbonyl)phenyl]methanone]		1840 nM	5.61 nM	246 nM
CCOc1cc(C(=O)N2C3CCC2COC3)ccc1C(=O)N1CCC2(Cc3ccccc3CN2)C(O)C1 (single isomer, unassigned) [Example 86, A diastereomer of {3-ethoxy-4-[(3′-hydroxy-1,4-dihydro-1′H,2H-spiro[isoquinoline-3,4′-piperidin]-1′-yl)carbonyl]phenyl}(3-oxa-8-azabicyclo[3.2.1]oct-8-yl)methanone]		28800 nM	82.2 nM	1470 nM
CCOc1cc(C(=O)N2C3CCC2COC3)ccc1C(=O)N1CCC2(CC1)Cc1ccc(Cl)cc1CN2 [Example 52, [4-(7-chloro-1,4-dihydro-1H,2H-spiro[isoquinoline-3,4′-piperidine]-1′-carbonyl)-3-ethoxyphenyl](3-oxa-8-azabicyclo[3.2.l]octan-8-yl)methanone]	87.7 nM	2250 nM	6.71 nM	
O=C(c1ccc(C(=O)N2C3CCC2COC3)cc1)N1CCC2(Cc3ccccc3CN2)C(O)C1 (single isomer, unassigned) [Example 149, (3′-hydroxy-1,4-dihydro-1′H,2H-spiro[isoquinoline-3,4′-piperidin]-1′ -yl)[4-(3-oxa-8-azabicyclo[3.2.1]oct-8-ylcarbonyl)phenyl]methanone]		≥ 100000 nM	298 nM	9840 nM
CCOc1cc(C(=O)N2C3CCC2COC3)ccc1C(=O)N1CCC2(CC1)Cc1ccccc1CN2 [Example 172, (4-(3-oxa-8-azabicyclo[3.2.1]octane-8-carbonyl)-2-ethoxyphenyl)(1,4-dihydro-2H-spiro[isoquinoline-3,4′-piperidin]-1′-yl)methanone]	88.9 nM	1940 nM	5.42 nM	
CC(=O)N1CCC(Nc2cc(C(=O)N3CC[C@]4(Cc5ccccc5CN4)[C@H](O)C3)ccn2)C(F)(F)C1 (single isomer, unassigned) [Example 97, 1—((S or R)-3,3-difluoro-4-((4-((3R,3′R)-3′-hydroxy-1,4-dihydro-2H-spiro[isoquinoline-3,4′-piperidine]-1′-carbonyl)pyridin-2-yl)amino)piperidin-1-yl)ethan-1-one]		7410 nM	4.54 nM	216 nM
O=C(c1ccc(C(=O)N2C3CCC2COC3)cc1)N1CCC2(Cc3ccccc3CN2)C(O)C1 (single isomer, unassigned) [Example 152, (3′-hydroxy-1,4-dihydro-1′H,2H-spiro[isoquinoline-3,4′-piperidin]-1′-yl)[4-(3-oxa-8-azabicyclo[3.2.1]oct-8-ylcarbonyl)phenyl]methanone]		335 nM	1.2 nM	27.7 nM
CC(=O)N1CCC(Nc2cc(C(=O)N3CCC4(Cc5ccccc5CN4)C(O)C3)ncn2)CC1 (single isomer, unassigned) [Example 91, A diastereomer of 1-[4-({6-[(3′-hydroxy-1,4-dihydro-1′H,2H-spiro[isoquinoline-3,4′-piperidin]-1′-yl)carbonyl]-4-pyrimidinyl}amino)-1-piperidinyl]ethanone]		513 nM	1.65 nM	305 nM
CC(=O)N1CCC(Nc2cc(C(=O)N3CC[C@]4(Cc5ccccc5CN4)[C@H](O)C3)ccn2)C(F)(F)C1 (single isomer, unassigned) [Example 96, 1—((S or R)-3,3-difluoro-4-((4-((3R,3′R)-3′-hydroxy-1,4-dihydro-2H-spiro[isoquinoline-3,4′-piperidine]-1′-carbonyl)pyridin-2-yl)amino)piperidin-1-yl)ethan-1-one]		34300 nM	19.7 nM	767 nM
O=C(c1ccc(C(=O)N2C3CCC2COC3)cc1)N1CCC2(CC1)Cc1ccccc1CN2 [Example 173, (4-(3-oxa-8-azabicyclo[3.2.1]octane-8-carbonyl)phenyl)(1,4-dihydro-2H-spiro[isoquinoline-3,4′-piperidin]-1′-yl)methanone]	5310 nM	14400 nM	32.3 nM	
[2H]C1([2H])NC2(CCN(C(=O)c3ccc(C(=O)N4C5CCC4COC5)cc3OCC)CC2)Cc2ccccc21 [Example 175, (4-(3-oxa-8-azabicyclo[3.2.1]octane-8-carbonyl)-2-ethoxyphenyl)(1,4-dihydro-2H-spiro[isoquinoline-3,4′-piperidin]-1′-yl-1,1-d2)methanone]	156 nM	2490 nM	6.32 nM	
CC(=O)N1CCC(Nc2cc(C(=O)N3CCC4(Cc5ccccc5CN4)C(O)C3)ncn2)CC1 (single isomer, unassigned) [Example 92, A diastereomer of 1-[4-({6-[(3′-hydroxy-1,4-dihydro-1′H,2H-spiro[isoquinoline-3,4′-piperidin]-1′-yl)carbonyl]-4-pyrimidinyl}amino)-1-piperidinyl]ethanone]			944 nM	≥ 10000 nM

Source: patent US12441730B2, “PRMT5 inhibitors” (Merck Sharp & Dohme LLC, priority 2019, dated 2025)
